Assay results: ChEMBL document CHEMBL1201862, “PubChem BioAssay data set” (2004)
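Tested at 5 concentrations; 48 h exposure; 96-well plates; endpoints linearly interpolated, else capped at highest concentration. GI50 = concentration required for 50% inhibition of growth.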 Active and inactive are the calls of the source. No stated cut-off is given here; in the data, active = GI50 up to about 1.1 µM and inactive = higher.

Columns and labels:
Assay in all cases: NCI anticancer screen, dose series, 48 h
Malme-3M = tested on: Malme-3M
SK-MEL-5 = tested on: SK-MEL-5
KM12 = tested on: KM12
OVCAR-5 = tested on: OVCAR-5
U-251 = tested on: U-251
TK-10 = tested on: TK-10
ACHN = tested on: ACHN
SK-MEL-2 = tested on: SK-MEL-2
A498 = tested on: A498
HOP-62 = tested on: HOP-62
SK-OV-3 = tested on: SK-OV-3
A549 = tested on: A549
CAKI-1 = tested on: CAKI-1
Hs-578T = tested on: Hs-578T
NCI-H226 = tested on: NCI-H226
K562 = tested on: K562
UACC-257 = tested on: UACC-257
NCI-H460 = tested on: NCI-H460
RXF 393 = tested on: RXF 393

Measured: GI50

COC1=CC(=O)C(C2CC(=O)c3c(O)cc(O)cc3O2)=CC1=O (configuration not stated)
inactive: Malme-3M 19.1 µM | SK-MEL-5 16.8 µM | KM12 17.3 µM | OVCAR-5 19.6 µM | U-251 18.5 µM | TK-10 16.9 µM | ACHN 15.9 µM | SK-MEL-2 17.4 µM | A498 29.9 µM | HOP-62 17.1 µM | SK-OV-3 36.8 µM | A549 39.9 µM | CAKI-1 18 µM | Hs-578T 33.5 µM | NCI-H226 19.4 µM | K562 5.86 µM | UACC-257 18.5 µM | NCI-H460 23 µM | RXF 393 19.1 µM

CCOC(=O)c1cc(C2CCN(c3ccccc3)C2=O)c(C(=O)/C=C(/C)N)[nH]1 (configuration not stated)
inactive: Malme-3M 17.6 µM | SK-MEL-5 40.8 µM | KM12 > 100 µM | OVCAR-5 46.3 µM | U-251 15 µM | TK-10 28.2 µM | ACHN 40.6 µM | SK-MEL-2 > 100 µM | A498 57 µM | HOP-62 18.1 µM | SK-OV-3 16.6 µM | A549 25.6 µM | CAKI-1 21.3 µM | Hs-578T 14.9 µM | NCI-H226 20.5 µM | K562 68.2 µM | UACC-257 94.8 µM | NCI-H460 33.2 µM | RXF 393 37.9 µM

Nc1ccc(Oc2ccc(C3(c4ccc(Oc5ccc(N)c(O)c5)cc4)C4CC5CC(C4)CC3C5)cc2)cc1O
inactive: Malme-3M 2.3 µM | SK-MEL-5 1.58 µM | KM12 1.91 µM | OVCAR-5 2.35 µM | U-251 1.7 µM | TK-10 2.12 µM | ACHN 1.82 µM | SK-MEL-2 1.86 µM | A498 5.74 µM | HOP-62 2.5 µM | SK-OV-3 2.45 µM | A549 1.81 µM | CAKI-1 2.47 µM | Hs-578T 2.24 µM | NCI-H226 1.83 µM | K562 2.04 µM | UACC-257 2.12 µM | NCI-H460 1.73 µM | RXF 393 1.73 µM

CC1CCC2(CC1)N=C1CCC(C)CC1C1(CCC(C)CC1)N2 (configuration not stated)
inactive: Malme-3M > 100 µM | SK-MEL-5 29.7 µM | KM12 > 100 µM | OVCAR-5 > 100 µM | U-251 78.7 µM | TK-10 > 100 µM | ACHN > 100 µM | SK-MEL-2 > 100 µM | A498 > 100 µM | SK-OV-3 > 100 µM | A549 > 100 µM | CAKI-1 > 100 µM | Hs-578T > 100 µM | NCI-H226 > 100 µM | K562 30.4 µM | UACC-257 83.6 µM | NCI-H460 > 100 µM | RXF 393 > 100 µM

N#C/C(C(=S)NCc1ccccc1)=C(/N)N1CCCC1
inactive: Malme-3M > 100 µM | SK-MEL-5 > 100 µM | KM12 > 100 µM | OVCAR-5 > 100 µM | U-251 > 100 µM | TK-10 > 100 µM | ACHN > 100 µM | SK-MEL-2 > 100 µM | A498 35.3 µM | HOP-62 > 100 µM | SK-OV-3 > 100 µM | A549 > 100 µM | CAKI-1 > 100 µM | Hs-578T > 100 µM | NCI-H226 > 100 µM | K562 > 100 µM | UACC-257 > 100 µM | NCI-H460 > 100 µM | RXF 393 74.3 µM

Cn1cc(S(=O)(=O)NC(=O)Nc2ccc(Cl)cc2)c(=O)c2ccc(F)cc21
inactive: Malme-3M > 100 µM | SK-MEL-5 > 100 µM | KM12 47.6 µM | OVCAR-5 > 100 µM | U-251 > 100 µM | TK-10 > 100 µM | ACHN > 100 µM | SK-MEL-2 > 100 µM | A498 > 100 µM | HOP-62 > 100 µM | SK-OV-3 > 100 µM | A549 > 100 µM | CAKI-1 > 100 µM | Hs-578T > 100 µM | NCI-H226 > 100 µM | K562 > 100 µM | UACC-257 > 100 µM | NCI-H460 > 100 µM | RXF 393 > 100 µM

Clc1cc(Cl)cc(/C=N/C23CC4CC(CC(C4)C2)C3)c1
inactive: Malme-3M > 10 µM | SK-MEL-5 > 10 µM | KM12 > 10 µM | OVCAR-5 > 10 µM | U-251 > 10 µM | TK-10 > 10 µM | ACHN > 10 µM | SK-MEL-2 > 10 µM | A498 > 10 µM | HOP-62 > 10 µM | SK-OV-3 > 10 µM | A549 > 10 µM | CAKI-1 > 10 µM | Hs-578T > 10 µM | NCI-H226 > 10 µM | K562 > 10 µM | UACC-257 > 10 µM | NCI-H460 > 10 µM | RXF 393 > 10 µM

c1coc(-c2nccc3c2[nH]c2ccccc23)c1
inactive: Malme-3M > 100 µM | SK-MEL-5 > 100 µM | KM12 > 100 µM | OVCAR-5 > 100 µM | U-251 > 100 µM | TK-10 > 100 µM | ACHN > 100 µM | SK-MEL-2 > 100 µM | A498 > 100 µM | HOP-62 > 100 µM | SK-OV-3 > 100 µM | A549 > 100 µM | CAKI-1 > 100 µM | Hs-578T > 100 µM | NCI-H226 29.1 µM | K562 > 100 µM | UACC-257 > 100 µM | NCI-H460 > 100 µM | RXF 393 > 100 µM

CCOc1ccccc1NC(=O)C(=O)C(/C(=N/N)C(=O)OC)c1nc2ccc([N+](=O)[O-])cc2nc1O (configuration not stated)
inactive: Malme-3M > 100 µM | SK-MEL-5 > 100 µM | KM12 > 100 µM | OVCAR-5 > 100 µM | U-251 > 100 µM | TK-10 > 100 µM | SK-MEL-2 > 100 µM | A498 > 100 µM | HOP-62 > 100 µM | SK-OV-3 > 100 µM | A549 > 100 µM | CAKI-1 > 100 µM | Hs-578T > 100 µM | NCI-H226 > 100 µM | K562 > 100 µM | UACC-257 > 100 µM | NCI-H460 > 100 µM | RXF 393 > 100 µM

O=C1O[C@H]2[C@H](O)[C@@H](OC(=O)c3cc(O)c(O)c4c3[C@@H]3C1=CC(=O)C(O)(O)C3(O)O4)[C@H](OC(=O)c1cc(O)c(O)c(O)c1)O[C@@H]2CO (some centres not stated) [FUROSIN]
inactive: Malme-3M > 100 µM | SK-MEL-5 42.5 µM | KM12 26.7 µM | OVCAR-5 > 100 µM | U-251 > 100 µM | ACHN 41.6 µM | SK-MEL-2 > 100 µM | A498 > 100 µM | HOP-62 > 100 µM | SK-OV-3 86.5 µM | A549 79.1 µM | CAKI-1 > 100 µM | Hs-578T > 100 µM | NCI-H226 > 100 µM | K562 38.1 µM | UACC-257 > 100 µM | NCI-H460 64.1 µM | RXF 393 > 100 µM
